Laboratory results taken from patent US10987336B2, “Method of preventing or treating side effect of tumor therapy” (priority 2018, dated 2021).
Where two headings read alike, the source gives them in different places.

How the values were obtained:
[1] = test system: HUVEC cells; test: CCK-8 cell survival: ameliorating proliferative toxicity of VEGF/VEGFR inhibitor (Examples 4-15); assay type: cell-based; details: agent 100 μM, 24-48 h
[2] = test system: HaCaT cells; assay type: cell-based, human
[3] = test system: HUVEC cells; assay type: cell-based; details: Sorafenib (V1) 10 μM + agent 50 μM, 24 hours, CCK-8
[4] = test system: Calmodulin (CaM); test: Western Blot expression level in HaCaT cells (Example 147); assay type: cell-based, human; details: 24 hours, compared with the control group
Procedure: In the present application, compared effect of the nitric oxide releasing agent with calcium channel blocker on expression levels of calmodulin and calreticulin in HaCat cell The cultured HaCaT cells were digested, suspended, counted, and seeded into a 6-well plate with 200,000 cells per well. After the cells were attached, a nitric oxide releasing agent (or calcium channel blocker) solution was added to achieve a particular final concentration. A basic medium was added into the control group. At 24 hours after administration of the nitric oxide releasing agent (or calcium channel blocker), RIPA lysate [MUT], Beyotime Biotechnology) was used to extract protein. The change of expressions of calmodulin and calreticulin was determined by Western Blot. […] Image Lab was used to analyze the gray value results. GraphPad Prism 6.0 Software and t-test were used to carry out a statistic analysis of the results and plot a graph. Of those, represents P<0.001, ** represents P<0.01, * represents P<0.05, indicating a significant difference as compared with the corresponding control group; as statistically analyzed by using t-test.

[5] = HaCaT, Sorafenib (V1) 10 μM + agent 50 μM, 24 hours, CCK-8

Structure (SMILES)	Cell Survival Rate (viable cells increased vs VEGF/VEGFR inhibitor group) ([1]; Regorafenib 10 μM)	Cell Survival Rate (viable cells increased vs VEGF/VEGFR inhibitor group) ([1]; Sorafenib 5 μM)	Cell Survival Rate (viable cells increased vs VEGF/VEGFR inhibitor group) ([1]; Sunitinib 5 μM)	Cell Survival Rate (viable cells increased vs VEGF/VEGFR inhibitor group) ([1]; Apatinib 10 μM)	Cell Survival Rate (viable cells increased vs VEGF/VEGFR inhibitor group) ([1]; Axitinib 10 μM)	Cell Survival Rate (viable cells increased vs VEGF/VEGFR inhibitor group) ([1]; Lenvatinib Mesylate 10 μM)	Cell Survival Rate (viable cells increased vs VEGF/VEGFR inhibitor group) ([1]; Nintedanib Esylate 10 μM)	Cell Survival Rate (viable cells increased vs VEGF/VEGFR inhibitor group) ([1]; Pazopanib Hydrochloride 10 μM)	Cell Survival Rate (viable cells increased vs VEGF/VEGFR inhibitor group) ([1]; Thalidomide 10 μM)	further results
NCCN(CCN)/[N+]([O-])=N/O [3,3-Bis (aminoethyl)-1-hydroxy-2-oxo-1-triazene]	Increased by 15-20%	Increased by 35-45%	Increased by 20-30%							
N=c1c[n+](N2CCOCC2)[n-]o1 [3-morpholinosydnonimine]	Increased by 15-20%	Increased by 30-40%	Increased by 10-20%							
CC(C)CCON=O [Isoamyl Nitrite]	Increased by 15-20%	Increased by 30-40%	Increased by 20-25%	Increased by 40-50%	Increased by 20-30%	Increased by 30-50%	Increased by 30-50%	Increased by 20-30%	Increased by 20-30%	
O=[N+]([O-])O[C@H]1CO[C@H]2[C@@H]1OC[C@H]2O[N+](=O)[O-] [Isosorbide Dinitrate]										Cell Survival Rate (percentage of viable cells increased as compared to the VEGF/VEGFR inhibitor group) [2, 5]: by 20-50%
O=[N+]([O-])O[C@@H]1CO[C@H]2[C@@H]1OC[C@@H]2O [Isosorbide Mononitrate]	Increased by 20-30%	Increased by 30-35%	Increased by 20-25%							Cell Survival Rate (percentage of viable cells increased as compared to the VEGF/VEGFR inhibitor group) [3]: by 20-40%; Cell Survival Rate (percentage of viable cells increased as compared to the VEGF/VEGFR inhibitor group) [2, 5]: by 20-50%
CCOC(=O)[N-]c1cn(N2CCOCC2)n[o+]1 [Molsidomine]	Increased by 20-30%	Increased by 30-40%	Increased by 20-30%	Increased by 40-50%	Increased by 20-30%	Increased by 30-50%	Increased by 30-50%	Increased by 20-30%	Increased by 20-30%	
O=C(NCCO[N+](=O)[O-])c1cccnc1 [Nicorandil]	Increased by 20-30%	Increased by 50-60%	Increased by 10-20%	Increased by 40-50%	Increased by 20-30%	Increased by 30-50%	Increased by 30-50%	Increased by 20-30%	Increased by 20-30%	
O=[N+]([O-])OCC(CO[N+](=O)[O-])O[N+](=O)[O-] [Nitroglycerin]										Cell Survival Rate (percentage of viable cells increased as compared to the VEGF/VEGFR inhibitor group) [3]: by 25-50%; Cell Survival Rate (percentage of viable cells increased as compared to the VEGF/VEGFR inhibitor group) [2]: by 20-40%
CCCc1nn(C)c2c(=O)[nH]c(-c3cc(S(=O)(=O)N4CCN(C)CC4)ccc3OCC)nc12 [Sildenafil]	No significant change	No significant change	No significant change							
COc1ccc([C@@H]2Sc3ccccc3N(CCN(C)C)C(=O)[C@@H]2OC(C)=O)cc1 [diltiazem]										expression level of calmodulin (CaM), gray value analysis [4]: decreased significantly
